Test results published in ChEMBL document CHEMBL1143311, “Structure-activity relationship and studies on the molecular mechanism of leishmanicidal N,C-coupled arylisoquinolinium salts” (J Med Chem, 2009).
pEC50, pIC50, pKi: −log10 of the molar value. Blank lines part the entries; values can stand above or below the molecule they belong to. Calls of active or inactive are those of the source. No cut-off for these calls is given here.

Assays:
Leishmania major [1] = test: Antileishmanial activity against Leishmania major MHOM/IL/81/FE/BNI promastigotes by alamar blue assay; assay type: functional, organism-based
[2] = Selectivity index, ratio of IC50 for mouse J774.1 cells to IC50 for Leishmania major MHOM/IL/81/FE/BNI promastigotes; assay type: toxicity; settings: for selectivity ratio: J774.1 cells, read-out: Ratio IC50
[3] = Antiproliferative activity against mouse J774.1 cells after 48 hrs by alamar blue assay; assay type: cell-based
Leishmania major [4] = test: Antileishmanial activity against Leishmania major MHOM/IL/81/FE/BNI promastigotes infected in BALB/c mouse peritoneal macrophages assessed as decrease in infection rate after 48 hrs by fluorescence microscopy; assay type: functional, organism-based
Macrophage [5] = test: Reduction of IL6 production in LPS-stimulated BALB/c mouse peritoneal macrophages infected with Leishmania major MHOM/IL/81/FE/BNI promastigotes at 3 uM after 24 hrs by sandwich ELISA; assay type: functional, cell-based
Cytochrome P450 3A4 = Cytochrome P450 3A4 (Homo sapiens, UniProt P08684); test: Inhibition of human CYP3A4 at 100 uM by LC/ESI-MS analysis; assay type: ADME
Chain of Cytochrome P450 3A4 (P08684 whole entry): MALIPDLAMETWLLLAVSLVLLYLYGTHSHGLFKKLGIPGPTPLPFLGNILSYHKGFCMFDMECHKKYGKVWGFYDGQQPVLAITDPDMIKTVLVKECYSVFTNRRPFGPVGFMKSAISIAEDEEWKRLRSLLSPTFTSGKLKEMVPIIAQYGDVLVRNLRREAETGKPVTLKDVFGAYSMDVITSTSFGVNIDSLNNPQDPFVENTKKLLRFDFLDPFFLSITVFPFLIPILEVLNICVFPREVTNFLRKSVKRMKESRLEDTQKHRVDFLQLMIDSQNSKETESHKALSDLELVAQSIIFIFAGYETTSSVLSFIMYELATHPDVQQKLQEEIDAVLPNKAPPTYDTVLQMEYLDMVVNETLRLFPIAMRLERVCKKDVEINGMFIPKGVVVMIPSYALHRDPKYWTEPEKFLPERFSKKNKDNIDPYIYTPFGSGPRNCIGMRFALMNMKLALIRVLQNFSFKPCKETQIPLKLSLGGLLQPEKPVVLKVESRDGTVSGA

Leishmania major [6] = test: Antileishmanial activity against Leishmania major MHOM/IL/81/FE/BNI promastigotes infected in BALB/c mouse peritoneal macrophages assessed as decrease in infection rate after 48 hrs by fluorescence microscopy in presence of interferon-gamma; assay type: functional, organism-based
Macrophage [7] = test: Increase in nitric oxide production in LPS-stimulated BALB/c mouse peritoneal macrophages infected with Leishmania major MHOM/IL/81/FE/BNI promastigotes at 3 uM after 48 hrs by […]; assay type: functional, cell-based
[8] = Ratio of IC50 for BALB/c mouse peritoneal macrophages to EC50 for Leishmania major MHOM/IL/81/FE/BNI promastigotes
Cytochrome P450 2D6 [9] = target: T1, Cytochrome P450 2D6 (Homo sapiens, UniProt P10635); test: Inhibition of human CYP2D6 expressed in baculovirus-infected insect cell system; assay type: ADME
T1 sequence (P10635 whole entry): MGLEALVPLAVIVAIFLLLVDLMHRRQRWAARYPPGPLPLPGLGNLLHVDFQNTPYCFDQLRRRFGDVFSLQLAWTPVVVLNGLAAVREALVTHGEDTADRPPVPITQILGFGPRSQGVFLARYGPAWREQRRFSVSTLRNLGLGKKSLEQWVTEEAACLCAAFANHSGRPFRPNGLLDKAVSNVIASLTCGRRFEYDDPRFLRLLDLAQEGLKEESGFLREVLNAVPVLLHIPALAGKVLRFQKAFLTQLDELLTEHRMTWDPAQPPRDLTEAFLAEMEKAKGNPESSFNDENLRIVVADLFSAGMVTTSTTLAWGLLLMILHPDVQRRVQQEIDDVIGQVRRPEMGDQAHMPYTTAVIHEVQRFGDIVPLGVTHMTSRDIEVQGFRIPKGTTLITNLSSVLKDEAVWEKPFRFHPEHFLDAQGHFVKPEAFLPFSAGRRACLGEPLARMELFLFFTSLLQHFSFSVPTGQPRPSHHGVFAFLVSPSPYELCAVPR

Macrophage [10] = test: Reduction of TNFalpha production in IFN-gamma-stimulated BALB/c mouse peritoneal macrophages infected with Leishmania major MHOM/IL/81/FE/BNI promastigotes at 3 uM after 24 hrs by sandwich ELISA; assay type: functional, cell-based
Cytochrome P450 2C19 = Cytochrome P450 2C19 (Homo sapiens, UniProt P33261); test: Inhibition of human CYP2C19 at 100 uM by LC/ESI-MS analysis; assay type: ADME
Chain of Cytochrome P450 2C19 (P33261 whole entry): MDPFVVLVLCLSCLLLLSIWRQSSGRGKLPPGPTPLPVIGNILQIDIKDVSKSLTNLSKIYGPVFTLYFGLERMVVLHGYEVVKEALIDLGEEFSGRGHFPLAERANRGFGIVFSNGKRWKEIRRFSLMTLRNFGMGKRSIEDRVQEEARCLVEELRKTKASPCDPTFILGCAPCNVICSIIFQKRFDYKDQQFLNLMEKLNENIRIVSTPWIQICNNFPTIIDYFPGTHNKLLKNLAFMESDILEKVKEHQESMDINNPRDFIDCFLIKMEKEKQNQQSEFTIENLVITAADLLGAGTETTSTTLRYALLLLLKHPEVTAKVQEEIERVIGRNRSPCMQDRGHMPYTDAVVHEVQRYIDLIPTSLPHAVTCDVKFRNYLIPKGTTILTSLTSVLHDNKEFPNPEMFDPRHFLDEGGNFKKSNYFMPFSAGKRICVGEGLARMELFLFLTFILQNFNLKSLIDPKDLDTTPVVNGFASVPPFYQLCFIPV

Cytochrome P450 2D6 [11] = target: T1, Cytochrome P450 2D6; test: Inhibition of human CYP2D6 at 1 to 100 uM by LC/ESI-MS analysis; assay type: ADME
Cytochrome P450 2C9 = Cytochrome P450 2C9 (Homo sapiens, UniProt P11712); test: Inhibition of human CYP2C9 at 100 uM by LC/ESI-MS analysis; assay type: ADME
Chain of Cytochrome P450 2C9 (P11712 whole entry): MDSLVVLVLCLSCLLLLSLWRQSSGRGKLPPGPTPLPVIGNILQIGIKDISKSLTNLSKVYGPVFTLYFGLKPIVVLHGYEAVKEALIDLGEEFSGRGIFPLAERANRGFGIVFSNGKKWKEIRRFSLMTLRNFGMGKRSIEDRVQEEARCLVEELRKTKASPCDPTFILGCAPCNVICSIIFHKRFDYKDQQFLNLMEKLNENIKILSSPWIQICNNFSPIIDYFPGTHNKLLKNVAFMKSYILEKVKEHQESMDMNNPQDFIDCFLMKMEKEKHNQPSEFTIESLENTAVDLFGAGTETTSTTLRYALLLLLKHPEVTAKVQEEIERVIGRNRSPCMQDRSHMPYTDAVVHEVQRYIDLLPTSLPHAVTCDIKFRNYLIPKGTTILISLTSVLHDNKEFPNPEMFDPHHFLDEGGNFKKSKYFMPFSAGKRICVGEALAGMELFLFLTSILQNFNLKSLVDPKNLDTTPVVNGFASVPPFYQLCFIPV

Macrophage [12] = test: Increase in nitric oxide production in IFN-gamma-stimulated BALB/c mouse peritoneal macrophages infected with Leishmania major MHOM/IL/81/FE/BNI promastigotes at 3 uM after 48 hrs by […] relative to noninfected cells; assay type: functional
Macrophage [13] = test: Increase in TGFbeta secretion in IFN-gamma-stimulated BALB/c mouse peritoneal macrophages infected with Leishmania major MHOM/IL/81/FE/BNI promastigotes at 3 uM after 24 hrs by sandwich ELISA; assay type: functional, cell-based
Cytochrome P450 2D6 [14] = target: T1, Cytochrome P450 2D6; test: Inhibition of human CYP2D6 by Lineweaver-Burke plot; assay type: ADME
[15] = Cytotoxicity against BALB/c mouse peritoneal macrophages after 48 hrs by alamar blue assay; assay type: cell-based; settings: Macrophage
Albumin = Albumin (Bos taurus, UniProt P02769); test: Binding affinity to bovine serum albumin by ultrafiltration method; assay type: ADME; settings: cattle, bovine serum albumin; read-out: PPB (converted)
Chain of Albumin (P02769 whole entry): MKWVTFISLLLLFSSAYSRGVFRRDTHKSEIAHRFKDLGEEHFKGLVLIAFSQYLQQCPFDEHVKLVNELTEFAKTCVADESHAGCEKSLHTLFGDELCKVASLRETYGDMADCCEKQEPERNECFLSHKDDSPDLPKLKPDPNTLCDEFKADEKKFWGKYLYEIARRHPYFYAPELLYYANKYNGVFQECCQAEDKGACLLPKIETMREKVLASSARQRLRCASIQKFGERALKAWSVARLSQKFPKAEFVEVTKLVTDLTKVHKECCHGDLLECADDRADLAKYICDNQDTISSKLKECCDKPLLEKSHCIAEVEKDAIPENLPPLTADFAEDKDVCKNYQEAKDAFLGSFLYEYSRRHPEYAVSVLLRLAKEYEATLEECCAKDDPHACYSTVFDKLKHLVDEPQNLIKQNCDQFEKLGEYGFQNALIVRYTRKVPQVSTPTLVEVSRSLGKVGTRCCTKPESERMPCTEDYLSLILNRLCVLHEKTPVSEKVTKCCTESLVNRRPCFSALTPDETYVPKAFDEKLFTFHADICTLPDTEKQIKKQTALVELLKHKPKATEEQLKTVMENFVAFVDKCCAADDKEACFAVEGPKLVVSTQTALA

Macrophage [16] = test: Decrease in IL10 secretion in LPS-stimulated BALB/c mouse peritoneal macrophages infected with Leishmania major MHOM/IL/81/FE/BNI promastigotes at 3 uM after 24 hrs by sandwich ELISA; assay type: functional, cell-based
[17] = Cytotoxicity against BALB/c mouse DC after 48 hrs by alamar blue assay
Macrophage [18] = test: Reduction of IL6 production in IFN-gamma-stimulated BALB/c mouse peritoneal macrophages infected with Leishmania major MHOM/IL/81/FE/BNI promastigotes at 3 uM after 24 hrs by sandwich ELISA; assay type: functional, cell-based
[19] = Cytotoxicity against mouse NIH/3T3 after 48 hrs by alamar blue assay; assay type: cell-based; settings: NIH3T3, 48 h
Macrophage [20] = test: Decrease in IL10 secretion in IFN-gamma-stimulated BALB/c mouse peritoneal macrophages infected with Leishmania major MHOM/IL/81/FE/BNI promastigotes at 3 uM after 24 hrs by sandwich ELISA; assay type: functional, cell-based
Macrophage [21] = test: Increase in TGFbeta secretion in BALB/c mouse peritoneal macrophages infected with Leishmania major MHOM/IL/81/FE/BNI promastigotes at 3 uM after 24 hrs by sandwich ELISA; assay type: functional, cell-based
Macrophage [22] = test: Increase in nitric oxide production in BALB/c mouse peritoneal macrophages infected with Leishmania major MHOM/IL/81/FE/BNI promastigotes at 3 uM after 48 hrs by […] relative to noninfected cells; assay type: functional
Macrophage [23] = test: Reduction of TNFalpha production in LPS-stimulated BALB/c mouse peritoneal macrophages infected with Leishmania major MHOM/IL/81/FE/BNI promastigotes at 3 uM after 24 hrs by sandwich ELISA; assay type: functional, cell-based

Compound: COc1cc(OC)c2c(C)[n+](-c3ccc(Br)cc3)c(C)cc2c1
pIC50 (Leishmania major [1]; Leishmania major): 4.71
selectivity ratio [2]: < 1
pIC50 ([3]; Mus musculus, J774.1, 48 h): 5.53

Compound: COc1cc(OC)c2c(C)[n+](-c3ccc4cc5ccccc5cc4c3)c(C)cc2c1
pIC50 (Leishmania major [1]; Leishmania major): 6.17
selectivity ratio [2]: < 1
pIC50 ([3]; Mus musculus, J774.1, 48 h): 6.64

Compound: COc1cc(OC)c2c(C)[n+](-c3ccc4ncccc4c3)c(C)cc2c1
pIC50 (Leishmania major [1]; Leishmania major): < 4.00
pIC50 ([3]; Mus musculus, J774.1, 48 h): < 4.00

Compound: COc1cc(OC)c2c(C)[n+](-c3ccc(O)cc3)c(C)cc2c1
pIC50 (Leishmania major [1]; Leishmania major): 4.80
pIC50 ([3]; Mus musculus, J774.1, 48 h): < 4.00

Compound: COc1cc(OC)c2c(C)[n+](-c3ccc(C)cc3C)c(C)cc2c1
pIC50 (Leishmania major [1]; Leishmania major): 5.48
selectivity ratio [2]: 1.24
pIC50 ([3]; Mus musculus, J774.1, 48 h): 5.39

Compound: COc1cc(OC)c2c(C)[n+](-c3cccc4c3C(=O)c3ccccc3C4=O)c(C)cc2c1
pIC50 (Leishmania major [1]; Leishmania major): < 4.00
pIC50 ([3]; Mus musculus, J774.1, 48 h): < 4.00

pEC50 (Leishmania major [4]): 6.80
Activity (Cytochrome P450 3A4): Not Active
pIC50 (Cytochrome P450 2D6 [9]): 6.96
Activity (Cytochrome P450 2C19): Not Active
Activity (Cytochrome P450 2D6 [11]): Active
Activity (Cytochrome P450 2C9): Not Active
pKi (Cytochrome P450 2D6 [14]): 7.26
fraction unbound (Albumin): 0.297
Compound: COc1cc(OC)c2c(C)[n+](-c3ccc(C(C)C)cc3)c(C)cc2c1.O=C([O-])C(F)(F)F
Activity (Macrophage [5]): Active
Activity (Leishmania major [6]): Active
pIC50 (Leishmania major [1]; Leishmania major): 5.70
selectivity ratio [2]: 6.55
Activity (Macrophage [7]): inactive
Ratio IC50/EC50 [8]: 56
Activity (Macrophage [10]): Active
fold change (FC) (Macrophage [12]): 3
Activity (Macrophage [13]): Active
pIC50 ([3]; Mus musculus, J774.1, 48 h): 4.88
pIC50 [15]: 5.06
Activity (Macrophage [16]): Active
pIC50 [17]: 5.12
Activity (Macrophage [18]): Active
pIC50 [19]: 4.95
Activity (Macrophage [20]): Active
Activity (Macrophage [21]): Active
fold change (FC) (Macrophage [22]): 2.7

Compound: COc1cc2c(c(OC)c1)C(C)N(c1ccc(C(C)C)cc1)C(C)C2 (stereo not given)
pIC50 (Leishmania major [1]; Leishmania major): 4.30
pIC50 ([3]; Mus musculus, J774.1, 48 h): 4.13

Compound: COc1cc(OC)c2c(C)[n+](-c3cccc4ccccc34)c(C)cc2c1
pIC50 (Leishmania major [1]; Leishmania major): 5.79
selectivity ratio [2]: 2.63
pIC50 ([3]; Mus musculus, J774.1, 48 h): 5.37

Compound: COc1cc(OC)c2c(C)[n+](-c3ccc(C#N)cc3)c(C)cc2c1
pIC50 (Leishmania major [1]; Leishmania major): < 4.00
pIC50 ([3]; Mus musculus, J774.1, 48 h): < 4.00

fraction unbound (Albumin): 0.416
Compound: COc1cc(OC)c2c(C)[n+](-c3ccc(C(C)C)cc3C(C)C)c(C)cc2c1
pIC50 (Leishmania major [1]; Leishmania major): 6.27
selectivity ratio [2]: 4.17
pIC50 ([3]; Mus musculus, J774.1, 48 h): 5.65

Activity (Cytochrome P450 2C19): Active
Activity (Cytochrome P450 2C9): Active
Compound: C=C[C@H]1C[N@@]2CC[C@H]1C[C@@H]2[C@@H](O)c1ccnc2ccc(OC)cc12 [QUINIDINE]

pEC50 (Leishmania major [4]): 7.04
Activity (Cytochrome P450 3A4): Active
pIC50 (Cytochrome P450 2D6 [9]): 7.25
Activity (Cytochrome P450 2C19): Active
Activity (Cytochrome P450 2D6 [11]): Active
Activity (Cytochrome P450 2C9): Active
pKi (Cytochrome P450 2D6 [14]): 7.55
fraction unbound (Albumin): 0.441
Compound: COc1cc(OC)c2c(C)[n+](-c3ccc(C)cc3)c(C)cc2c1.F[B-](F)(F)F
Activity (Macrophage [5]): Active
Activity (Leishmania major [6]): Active
pIC50 (Leishmania major [1]; Leishmania major): 5.58
selectivity ratio [2]: 5.55
Activity (Macrophage [7]): inactive
Ratio IC50/EC50 [8]: 138
Activity (Macrophage [10]): Active
pIC50 ([3]; Mus musculus, J774.1, 48 h): 4.84
pIC50 [15]: 4.89
Activity (Macrophage [16]): inactive
Activity (Macrophage [23]): Active
pIC50 [17]: 4.62
Activity (Macrophage [18]): Active
pIC50 [19]: 4.30
Activity (Macrophage [20]): inactive

Compound: COc1cc(OC)c2c(C)[n+](-c3cccc4cc5ccccc5cc34)c(C)cc2c1.F[B-](F)(F)F
pIC50 (Leishmania major [1]): 6.14
Ratio IC50 [2]: < 1
pIC50 ([3]; j774.1): 5.53

Compound: COc1cc(OC)c2c(C)[n+](-c3ccc(Cl)cc3)c(C)cc2c1
pIC50 (Leishmania major [1]; Leishmania major): 4.72
selectivity ratio [2]: < 1
pIC50 ([3]; Mus musculus, J774.1, 48 h): 5.52

Compound: COc1cc2c(c(OC)c1)C(C)N(c1cccc3ccccc13)C(C)C2 (stereo not given)
pIC50 (Leishmania major [1]; Leishmania major): 4.18
pIC50 ([3]; Mus musculus, J774.1, 48 h): < 4.00

pEC50 (Leishmania major [4]): 6.62
Activity (Cytochrome P450 3A4): Active
Activity (Cytochrome P450 2C19): Active
Activity (Cytochrome P450 2D6 [11]): Not Active
Activity (Cytochrome P450 2C9): Active
fraction unbound (Albumin): 0.538
Compound: COc1cc(OC)c2c(C)[n+](-c3c(C)cccc3C)c(C)cc2c1.F[B-](F)(F)F
Activity (Macrophage [5]): Active
Activity (Leishmania major [6]): Active
pIC50 (Leishmania major [1]; Leishmania major): 5.46
selectivity ratio [2]: 7.82
Activity (Macrophage [7]): inactive
Ratio IC50/EC50 [8]: 40
Activity (Macrophage [10]): Active
pIC50 ([3]; Mus musculus, J774.1, 48 h): 4.56
pIC50 [15]: 5.01
Activity (Macrophage [16]): Active
pIC50 [17]: 5.06
Activity (Macrophage [18]): Active
pIC50 [19]: 4.42
Activity (Macrophage [20]): Active
